Results as given in PMC6930524, “A Prospective Repurposing of Dantrolene as a Multitarget Agent for Alzheimer’s Disease” (Molecules, 2019).

Key:
[1] = DPPH radical scavenging assay; type: physicochemical; conditions: compound 50 μM, DPPH 100 μM
Description: (§1) Starting from these evidences, we tested DAN in two in vitro models of radical scavenging activity, i.e., the 1,1-diphenyl-2-picryl-hydrazyl (DPPH) and 2,2′-azinobis-(3-ethylbenzothiazoline-6-sulfonic acid) (ABTS) free radical production. Both generate stable nitrogen radicals showing high absorption in visible spectrum, thus allowing easy and straightforward spectrophotometric measures. […] It can be assumed that the antioxidant activity of DAN is independent from its radical scavenging properties.
(§2) Already published protocols for DPPH and […] radical scavenging were used. The scavenging of the radical DPPH^·, or the monocation radical ABTS^·+, were determined by measuring the loss of absorbance at 515 or 755 nm, respectively. Samples were prepared in clear polystyrene flat-bottomed 96-well microplates. […] A preliminary absorbance reading at 755 nm allowed to determine the actual ABTS^·+ concentration (normally 60–70 μM; extinction coefficient ε = 12,000) and set the final concentration of inhibitors to 0.2[ABTS^·+]. 215 μL of ABTS^·+ solution were mixed with 35 μL of stock solution of inhibitors and the decrease in absorbance was monitored. Antioxidant activity was determined from Equation (2) as the percentage of radical production of inhibitor containing samples, compared with control: % radical production = 100 × ABSsample/ABScontrol(2)

[2] = ABTS radical scavenging assay; type: physicochemical; conditions: compound at 0.2·[ABTS+]
Description: as §1, §2

MAO B, human enzyme = target: MAO B, human enzyme; set-up: method as in PMID 22282722; conditions: competitive inhibition; cited from earlier work

Row | Compound | DPPH radical scavenging activity [1] | ABTS radical scavenging activity [2] | Ki for human MAO B (competitive) (MAO B, human enzyme)
1 | O=c1c(O)c(-c2ccc(O)c(O)c2)oc2cc(O)cc(O)c12 [quercetin] | strong radical scavenger | strong radical scavenger | –
2 | CCc1ccc(CCOc2ccc(CC3SC(=O)NC3=O)cc2)nc1 (stereo not shown) [pioglitazone] | – | – | submicromolar
3 | CN(CCOc1ccc(CC2SC(=O)NC2=O)cc1)c1ccccn1 (stereo not shown) [rosiglitazone] | – | – | low-
